Measurements reported in publication PMC9676231, “Screening and characterization estrogen receptor ligands from Arnebia euchroma (Royle) Johnst. via affinity ultrafiltration LC-MS and molecular docking” (Frontiers in Plant Science, 2022).
Like-named read-outs stand apart in the source and are kept apart here.

What was measured:
ER α = target: T1, ER α (Homo sapiens, UniProt P03372); test: Affinity ultrafiltration LC-MS screening (AUF-LC-MS) of Arnebiae Radix extract against ER α; details: specific binding = Aa/Ab (relative peak area active group / denatured group), extract 5.0 mg/ml, ER α 200 µg/ml, 37°C 60 min, <1.5 = non-ligand
T1 construct: purchased Shanghai Tongwei Biotechnology Co., Ltd. (China)
T1 sequence (P03372 1-595): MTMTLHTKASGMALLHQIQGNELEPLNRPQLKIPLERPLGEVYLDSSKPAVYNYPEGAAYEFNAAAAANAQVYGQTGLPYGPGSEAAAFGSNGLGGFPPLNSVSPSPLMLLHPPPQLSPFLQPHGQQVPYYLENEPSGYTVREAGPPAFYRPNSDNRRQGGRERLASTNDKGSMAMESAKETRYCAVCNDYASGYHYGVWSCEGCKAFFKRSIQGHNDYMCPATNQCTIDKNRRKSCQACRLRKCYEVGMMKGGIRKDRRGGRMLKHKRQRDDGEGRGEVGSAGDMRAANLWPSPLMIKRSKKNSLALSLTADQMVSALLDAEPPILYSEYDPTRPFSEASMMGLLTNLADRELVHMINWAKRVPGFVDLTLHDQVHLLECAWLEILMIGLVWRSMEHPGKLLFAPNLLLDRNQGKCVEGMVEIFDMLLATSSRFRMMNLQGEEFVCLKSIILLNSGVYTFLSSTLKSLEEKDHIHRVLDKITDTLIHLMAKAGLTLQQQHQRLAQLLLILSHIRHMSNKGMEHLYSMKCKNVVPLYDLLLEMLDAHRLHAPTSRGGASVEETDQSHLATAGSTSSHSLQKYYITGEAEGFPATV
Description: (§1) The above extract was dissolved in DMSO, and the solution was diluted with buffer (pH = 8.0) to a final concentration of 5.0 mg/ml. The sample solution and buffer were successively added to EP tubes. Then buffer, inactivated ER α solution (200 µg/ml, boiled in the water bath for 20 min), and ER α solution (200 µg/ml) were separately added as the blank control group, the denatured control group, and the sample group, respectively. The blank control group and denatured control group were set to exclude some interference factors about background, false positives, and non-specific binding. The group of mixtures was subsequently incubated in the dark at 37°C for 60 min to make a combination balance. Next, each mixture (200 μl) was transferred into an ultrafiltration tube and ultrafiltered at 12,000 rpm for 15 min at 4°C. Then, each group was washed three times with 300 μl of buffer to remove unbound small molecules. Finally, the ligands bound to ER α were dissociated from the complexes by incubating with 300 μl of methanol/water (90/10) for 10 min and then centrifuging at 12,000 rpm for 15 min at room temperature, three times. These ultrafiltrates for each group were dried under nitrogen gas at room temperature and reconstituted in 80 μl of methanol/water (50/50) prior to UHPLC-Q-Exactive Orbitrap MS analysis. All the screening assays were carried out in triplicate. Except for the replacement of the ER, the affinity ultrafiltration screening method of ER β is similar to that of ER α in the other steps.
The analyses are exercised on Q-Exactive Focus Orbitrap MS connected to Thermo Scientific Dionex Ultimate 3000 RS through an ESI source. […] The 0.1% formic acid and acetonitrile were used as the mobile phases A and B, respectively. […] For the MS/MS analysis, the mass spectrometer equipped with an electrospray ionization source was obtained with a resolution of 70,000 detected by the Orbitrap analyzer. In order to comprehensively explore compounds, the positive and negative ion modes were both selected. The mass spectrometry conditions are as follows: electrospray ion source, the spray voltage was 3.5 kV for positive ion mode and 3.2 kV for negative ion mode, sheath gas pressure was 35 arb, auxiliary gas pressure was 10 arb, and the temperature of capillary and auxiliary gas heater was 320°C and 350°C, respectively; and the S-lens RF level was 60. Full-scan data were acquired from m/z 100–1,200 by data-dependent MS^2 scanning or parallel reaction monitoring (PRM) mode. The nitrogen gas served as collision gas, and the energy was set as normalized collision energy 30%. Instrument and data were controlled by the Xcalibur software version 4.2.
Therefore, affinity ultrafiltration can rapidly screen and identify bioactive compounds in complex plant extracts by comparing the changes in peak areas before and after ultrafiltration.

ER β [1] = target: T2, ER β (Homo sapiens, UniProt Q92731); test: Affinity ultrafiltration LC-MS screening (AUF-LC-MS) of Arnebiae Radix extract against ER β; details: specific binding = Aa/Ab (relative peak area active group / denatured group), extract 5.0 mg/ml, ER β 200 µg/ml, 37°C 60 min, <1.5 = non-ligand
T2 construct: purchased Shanghai Tongwei Biotechnology Co., Ltd. (China)
T2 sequence (Q92731 whole entry): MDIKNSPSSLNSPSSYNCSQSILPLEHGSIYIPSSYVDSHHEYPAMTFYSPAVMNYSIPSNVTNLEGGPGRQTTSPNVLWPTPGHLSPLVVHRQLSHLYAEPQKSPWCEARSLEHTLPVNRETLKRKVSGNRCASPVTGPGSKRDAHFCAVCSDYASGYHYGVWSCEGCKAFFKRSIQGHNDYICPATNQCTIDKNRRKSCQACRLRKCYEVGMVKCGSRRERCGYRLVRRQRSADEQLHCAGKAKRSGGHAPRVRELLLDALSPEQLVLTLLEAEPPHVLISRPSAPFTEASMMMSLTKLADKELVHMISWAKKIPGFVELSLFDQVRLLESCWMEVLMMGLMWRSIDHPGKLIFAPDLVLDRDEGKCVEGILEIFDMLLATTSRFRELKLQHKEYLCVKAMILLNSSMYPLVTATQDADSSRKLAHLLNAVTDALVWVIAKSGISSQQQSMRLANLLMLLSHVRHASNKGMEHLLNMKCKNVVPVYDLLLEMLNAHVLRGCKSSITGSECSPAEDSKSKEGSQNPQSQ
Description: as §1
The analyses are exercised on Q-Exactive Focus Orbitrap MS connected to Thermo Scientific Dionex Ultimate 3000 RS through an ESI source. For the chromatographic separation, a Thermo Scientific Hypersil GOLD™ aQ (100 mm × 2.1 mm, 1.9 μm) was applied at the flow rate of 0.3 ml/min. The 0.1% formic acid and acetonitrile were used as the mobile phases A and B, respectively. The optimized UHPLC elution procedures were conducted as follows: 0–2 min, 95%–90% A; 2–5 min, 90%–80% A; 5–10 min, 80%–75% A; 10–15 min, 75%–50% A; 15–25 min, 50%–45% A; 25–40 min, 45%–20% A; 40–45 min, 20%–5% A; 45–45.1 min, 5%–95% A; 45–50 min, 95% A. The column temperature was maintained at 35°C. For the MS/MS analysis, the mass spectrometer equipped with an electrospray ionization source was obtained with a resolution of 70,000 detected by the Orbitrap analyzer. In order to comprehensively explore compounds, the positive and negative ion modes were both selected. The mass spectrometry conditions are as follows: electrospray ion source, the spray voltage was 3.5 kV for positive ion mode and 3.2 kV for negative ion mode, sheath gas pressure was 35 arb, auxiliary gas pressure was 10 arb, and the temperature of capillary and auxiliary gas heater was 320°C and 350°C, respectively; and the S-lens RF level was 60. Full-scan data were acquired from m/z 100–1,200 by data-dependent MS^2 scanning or parallel reaction monitoring (PRM) mode. The nitrogen gas served as collision gas, and the energy was set as normalized collision energy 30%. Instrument and data were controlled by the Xcalibur software version 4.2.
Therefore, affinity ultrafiltration can rapidly screen and identify bioactive compounds in complex plant extracts by comparing the changes in peak areas before and after ultrafiltration. […] According to literature reports ([Munigunti et al., 2011]), compounds whose specific binding values were less than 1.5 were considered as non-ligands.

ER β [2] = target: T2, ER β; test: SPR binding measurements (Biacore T200) on immobilized ER β; details: for kon: read-out: Ka (association rate constant); for koff: read-out: Kd (dissociation rate constant)
Description: SPR binding measurements were performed using a Biacore T200 biosensor system (Cytiva, USA). All the SPR-based materials were acquired from Cytiva.
ER β was dissolved in PBS at 1.0 mg/ml and was then diluted in 20 μg/ml sodium acetate buffer at pH 5.0 and immobilized on a CM5 chip using an amine coupling kit. Sulfo-NHS (0.1 mol/l) and EDC (0.4 mol/l) with a 1:1 volume ratio were mixed at 25°C and flowed through a chip channel at 10 μl/min. ERβ was flowed through the chip channel at the same flow rate and reacted with the activated carboxyl groups on the chip for 600 s. Ethanolamine hydrochloride flowed through the chip channel at the same flow rate for 360 s.
Sensor preparation and interaction analyses were performed at 25°C in the PBS running buffer. Each analyte was dissolved in DMSO at 1 mg/ml and then dissolved in the running buffer at 0.20, 0.39, 0.78, 1.56, 3.13, 6.25, 12.5, and 25 μg/ml for SPR measurements.
The running buffer was used as the blank control. Eight groups of gradient concentrations of the same analyte (and the blank control) were flowed through the immobilized channel at a flow rate of 30 μl/min, with an association time of 180s and a dissociation time of 300 s. The collected signals were monitored in real time, and a reference flow cell without immobilized ER β served as a non-specific binding control. The rate constants of association and dissociation were calculated by the non-linear fitting method including the simultaneous fitting for the association and dissociation phases in each sensorgram in Biacore Evaluation Software version 3.2.1 (Cytiva, USA).

thrombin = target: thrombin; set-up: method as in Wang et al., 2017; details: SPR, direct interaction with thrombin; ref Wang et al., 2017; cited from earlier work
[3] = SPR, ER β on CM5 chip, 25°C, PBS running buffer, read-out: KD
[4] = SPR, ER β on CM5 chip, 25°C, PBS running buffer

Row | Specific binding (ER α) | Specific binding (ER β [1]) | Rmax (ER β [2]; SPR, ER β on CM5 chip, 25°C) [RU] | Kd (ER β [2]; [3]) [µM] | Structure (SMILES) | also measured
1 | 6.36 | 2.39 | – | – | N[C@@H](Cc1ccccc1)C(=O)O [Phenylalanine] | –
2 | 5.02 | 1.78 | – | – | O=C(O)CC(O)(CC(=O)O)C(=O)O [Citric acid] | –
3 | – | 2.66 | 4.41 | 1.32 | O=C(/C=C/c1ccc(O)c(O)c1)O[C@H](Cc1ccc(O)c(O)c1)C(=O)O [Rosmarinic acid] | kon (ER β [2]; [4]): 2020 M⁻¹ s⁻¹; koff (ER β [2]; [4]): 0.00266 s⁻¹
4 | – | 2.20 | – | – | O=C(O)CC(O)C(=O)O (stereo not shown) [Malic acid] | –
5 | 5.77 | – | – | – | O=C(O)CCCCC(=O)O [Adipic acid] | –
6 | – | 2.29 | – | – | CCCC[C@H](N)C(=O)O [Norleucine] | –

Continued, molecule first:

Row | Structure (SMILES) | Specific binding (ER α) | Specific binding (ER β [1]) | Rmax (ER β [2]; SPR, ER β on CM5 chip, 25°C) [RU] | Kd (ER β [2]; [3]) [µM] | also measured
7 | COc1ccc(C2COc3cc(O)ccc3C2)c(OC)c1 (stereo not shown) [Sativan] | 2.15 | – | – | – | –
8 | O=c1c(O)c(-c2ccc(O)c(O)c2)oc2cc(O)cc(O)c12 [Quercetin] | – | 1.54 | 13.28 | 1.26 | kon (ER β [2]): 2950 M⁻¹ s⁻¹; koff (ER β [2]): 0.00372 s⁻¹
9 | O=c1c(O[C@@H]2O[C@H](CO)[C@@H](O)[C@H](O)[C@H]2O)c(-c2ccc(O)c(O)c2)oc2cc(O)cc(O)c12 [Isoquercitrin] | – | 1.91 | 9.57 | 1.04 | kon (ER β [2]; [4]): 3020 M⁻¹ s⁻¹; koff (ER β [2]; [4]): 0.00314 s⁻¹
10 | CC(C)=CCCC1=CC(=O)c2c(O)ccc(O)c2C1=O [Deoxyshikonin] | 2.28 | – | – | – | –
11 | O=C(/C=C/c1ccc(O)c2oc(-c3ccc(O)c(O)c3)cc12)O[C@H](Cc1ccc(O)c(O)c1)C(=O)O [Salvianolic acid C] | – | 1.75 | 12.6 | 1.98 | kon (ER β [2]; [4]): 1390 M⁻¹ s⁻¹; koff (ER β [2]; [4]): 0.00276 s⁻¹
12 | O=C(/C=C/c1ccc(O)c2c1[C@H](C(=O)O[C@H](Cc1ccc(O)c(O)c1)C(=O)O)[C@@H](c1ccc(O)c(O)c1)O2)O[C@H](Cc1ccc(O)c(O)c1)C(=O)O [Salvianolic acid B] | – | 2.24 | 3.51 | – | Kd (ER β [2]): 2.32 µM; kon (ER β [2]; [4]): 788 M⁻¹ s⁻¹; koff (ER β [2]; [4]): 0.00183 s⁻¹
13 | COc1ccc2cc3[n+](cc2c1OC)CCc1cc2c(cc1-3)OCO2 [berberine] | – | – | – | – | Kd (thrombin): 16.4 µM
14 | C[C@@H]1O[C@@H](OC[C@H]2O[C@@H](Oc3c(-c4ccc(O)c(O)c4)oc4cc(O)cc(O)c4c3=O)[C@H](O)[C@@H](O)[C@@H]2O)[C@H](O)[C@H](O)[C@H]1O [Rutin] | – | – | 7.78 | 0.934 | –
